Measured values as given in ChEMBL document CHEMBL4715821, “Discovery of 4-ethoxy-7H-pyrrolo[2,3-d]pyrimidin-2-amines as potent, selective and orally bioavailable LRRK2 inhibitors” (Bioorg Med Chem Lett, 2018).
pIC50: −log10 of the molar value.

Tests used:
[1] = Dose normalized AUC (0 to t) in Han-Wistar rat blood at 10 mg/kg, po measured up to 7 hrs by UPLC-MS/MS analysis; assay type: ADME, organism-based; conditions: in vivo
[2] = molecular target: Leucine-rich repeat serine/threonine-protein kinase 2 (Homo sapiens, UniProt Q5S007); experiment: Inhibition of LRRK2 in human AHE cells assessed as reduction in Ser935 phosphorylation; assay type: cell-based, Lymphoblastoid cell
[3] = molecular target: Tyrosine-protein kinase ABL2 (Homo sapiens) (UniProt P42684); experiment: Inhibition of wild-type human ABL2 (A248 to G542 residues) expressed in bacterial expression system assessed as residual activity at 1 uM by Kinomescan method relative to control
[4] = molecular target: Calcium/calmodulin-dependent protein kinase type II subunit gamma (Homo sapiens) (UniProt Q13555); experiment: Inhibition of wild-type human partial length CAMK2G (R9 to A303 residues) expressed in bacterial expression system assessed as residual activity at 1 uM by Kinomescan method relative to control
Chain of Calcium/calmodulin-dependent protein kinase type II subunit gamma (Homo sapiens) (Q13555 whole entry, the tested form may be a part): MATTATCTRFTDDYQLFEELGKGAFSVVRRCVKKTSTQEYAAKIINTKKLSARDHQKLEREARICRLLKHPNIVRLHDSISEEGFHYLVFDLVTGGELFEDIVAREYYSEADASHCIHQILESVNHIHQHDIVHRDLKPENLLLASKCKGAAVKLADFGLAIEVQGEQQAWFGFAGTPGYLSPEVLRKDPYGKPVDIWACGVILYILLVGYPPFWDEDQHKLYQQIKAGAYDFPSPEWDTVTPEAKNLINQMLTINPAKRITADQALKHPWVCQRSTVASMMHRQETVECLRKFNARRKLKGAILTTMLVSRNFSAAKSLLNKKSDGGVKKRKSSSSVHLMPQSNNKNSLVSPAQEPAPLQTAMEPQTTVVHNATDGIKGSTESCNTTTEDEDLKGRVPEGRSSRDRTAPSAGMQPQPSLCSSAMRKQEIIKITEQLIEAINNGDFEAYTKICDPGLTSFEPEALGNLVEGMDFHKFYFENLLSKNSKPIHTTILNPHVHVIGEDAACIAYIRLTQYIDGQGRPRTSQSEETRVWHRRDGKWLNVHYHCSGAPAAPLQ

[5] = molecular target: CDK6/cyclin D3 (Homo sapiens) (UniProt P30281+Q00534); experiment: Inhibition of wild-type human full length CDK6 (M1 to A326 residues)/cyclin D3 expressed in mammalian expression system assessed as residual activity at 1 uM by Kinomescan method relative to control
[6] = molecular target: Casein kinase I isoform alpha-like (Homo sapiens) (UniProt Q8N752); experiment: Inhibition of CK1a1L (unknown origin) assessed as residual activity at 1 uM by Kinomescan method relative to control
[7] = molecular target: Casein kinase I isoform gamma-2 (Homo sapiens) (UniProt P78368); experiment: Inhibition of CK1g2 (unknown origin) assessed as residual activity at 1 uM by Kinomescan method relative to control
[8] = molecular target: Ephrin type-A receptor 4 (Homo sapiens) (UniProt P54764); experiment: Inhibition of wild-type human partial length EPHA4 (T601 to R897 residues) expressed in bacterial expression system assessed as residual activity at 1 uM by Kinomescan method relative to control
[9] = molecular target: Ephrin type-A receptor 5 (Homo sapiens) (UniProt P54756); experiment: Inhibition of wild-type human partial length EPHA5 (T627 to V930 residues) expressed in bacterial expression system assessed as residual activity at 1 uM by Kinomescan method relative to control
[10] = molecular target: Tyrosine-protein kinase JAK1 (Homo sapiens) (UniProt P23458); experiment: Inhibition of wild-type human partial length JAK1 JH2 pseudokinase domain (R537 to D855 residues) expressed in mammalian expression system assessed as residual activity at 1 uM by Kinomescan method relative to control
[11] = molecular target: Tyrosine-protein kinase JAK2 (Homo sapiens) (UniProt O60674); experiment: Inhibition of wild-type human partial length JAK2 JH1 catalytic domain (A829 to G1132 residues) expressed in mammalian expression system assessed as residual activity at 1 uM by Kinomescan method relative to control
Chain of Tyrosine-protein kinase JAK2 (Homo sapiens) (O60674 whole entry, the tested form may be a part): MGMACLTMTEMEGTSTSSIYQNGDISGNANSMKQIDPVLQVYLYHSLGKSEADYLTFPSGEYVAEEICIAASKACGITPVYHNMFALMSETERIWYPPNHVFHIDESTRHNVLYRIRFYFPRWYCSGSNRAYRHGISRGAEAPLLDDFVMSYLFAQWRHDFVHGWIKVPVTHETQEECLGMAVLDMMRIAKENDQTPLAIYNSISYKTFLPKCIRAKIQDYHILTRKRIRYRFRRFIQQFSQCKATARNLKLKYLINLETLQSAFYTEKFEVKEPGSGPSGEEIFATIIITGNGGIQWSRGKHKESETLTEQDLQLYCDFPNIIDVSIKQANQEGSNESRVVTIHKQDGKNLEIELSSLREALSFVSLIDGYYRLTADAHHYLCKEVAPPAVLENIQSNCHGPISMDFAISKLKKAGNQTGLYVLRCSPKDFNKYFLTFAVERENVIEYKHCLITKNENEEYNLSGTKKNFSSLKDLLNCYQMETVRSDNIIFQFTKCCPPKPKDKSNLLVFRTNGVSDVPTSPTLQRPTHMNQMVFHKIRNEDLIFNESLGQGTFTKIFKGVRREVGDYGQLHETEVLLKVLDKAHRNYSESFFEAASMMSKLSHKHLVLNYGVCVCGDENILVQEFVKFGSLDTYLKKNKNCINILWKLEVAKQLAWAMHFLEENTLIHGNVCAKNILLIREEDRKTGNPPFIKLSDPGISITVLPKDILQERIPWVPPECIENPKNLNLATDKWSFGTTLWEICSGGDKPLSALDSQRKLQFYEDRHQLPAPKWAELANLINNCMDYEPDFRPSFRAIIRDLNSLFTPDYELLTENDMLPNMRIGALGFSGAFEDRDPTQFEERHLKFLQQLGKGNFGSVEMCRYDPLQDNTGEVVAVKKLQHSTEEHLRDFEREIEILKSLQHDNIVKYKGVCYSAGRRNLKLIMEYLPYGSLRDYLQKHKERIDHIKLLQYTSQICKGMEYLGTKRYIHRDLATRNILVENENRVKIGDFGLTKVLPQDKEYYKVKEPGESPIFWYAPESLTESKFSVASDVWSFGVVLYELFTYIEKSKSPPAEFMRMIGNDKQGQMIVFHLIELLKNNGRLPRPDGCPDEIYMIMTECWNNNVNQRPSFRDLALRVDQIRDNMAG

[12] = molecular target: Tyrosine-protein kinase Lck (Homo sapiens) (UniProt P06239); experiment: Inhibition of wild-type human partial length LCK (R207 to P509 residues) expressed in bacterial expression system assessed as residual activity at 1 uM by Kinomescan method relative to control
Chain of Tyrosine-protein kinase Lck (Homo sapiens) (P06239 2-509 limits assumed): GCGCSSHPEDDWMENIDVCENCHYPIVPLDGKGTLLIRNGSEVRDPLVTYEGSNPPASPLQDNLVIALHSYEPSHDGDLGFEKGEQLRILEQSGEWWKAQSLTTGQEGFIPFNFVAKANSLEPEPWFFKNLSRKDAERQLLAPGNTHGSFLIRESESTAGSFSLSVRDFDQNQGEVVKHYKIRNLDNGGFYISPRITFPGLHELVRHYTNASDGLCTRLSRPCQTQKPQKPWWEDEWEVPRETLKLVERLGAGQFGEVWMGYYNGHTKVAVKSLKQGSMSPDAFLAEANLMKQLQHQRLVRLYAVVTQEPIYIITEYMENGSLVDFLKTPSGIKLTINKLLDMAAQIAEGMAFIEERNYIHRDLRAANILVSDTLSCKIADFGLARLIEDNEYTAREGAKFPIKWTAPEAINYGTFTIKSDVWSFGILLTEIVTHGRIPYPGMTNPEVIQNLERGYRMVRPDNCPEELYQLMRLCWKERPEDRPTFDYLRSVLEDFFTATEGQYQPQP

[13] = molecular target: Serine/threonine-protein kinase 10 (Homo sapiens) (UniProt O94804); experiment: Inhibition of wild-type human partial length LOK (E16 to V314 residues) expressed in bacterial expression system assessed as residual activity at 1 uM by Kinomescan method relative to control
[14] = molecular target: Serine/threonine-protein kinase MRCK beta (Homo sapiens) (UniProt Q9Y5S2); experiment: Inhibition of wild-type human partial length MRCKB (L56 to S417 residues) expressed in bacterial expression system assessed as residual activity at 1 uM by Kinomescan method relative to control
[15] = molecular target: Muscle, skeletal receptor tyrosine-protein kinase (Homo sapiens) (UniProt O15146); experiment: Inhibition of wild-type human partial length MUSK (M553 to V869 residues) expressed in bacterial expression system assessed as residual activity at 1 uM by Kinomescan method relative to control
Chain of Muscle, skeletal receptor tyrosine-protein kinase (Homo sapiens) (O15146 whole entry, the tested form may be a part): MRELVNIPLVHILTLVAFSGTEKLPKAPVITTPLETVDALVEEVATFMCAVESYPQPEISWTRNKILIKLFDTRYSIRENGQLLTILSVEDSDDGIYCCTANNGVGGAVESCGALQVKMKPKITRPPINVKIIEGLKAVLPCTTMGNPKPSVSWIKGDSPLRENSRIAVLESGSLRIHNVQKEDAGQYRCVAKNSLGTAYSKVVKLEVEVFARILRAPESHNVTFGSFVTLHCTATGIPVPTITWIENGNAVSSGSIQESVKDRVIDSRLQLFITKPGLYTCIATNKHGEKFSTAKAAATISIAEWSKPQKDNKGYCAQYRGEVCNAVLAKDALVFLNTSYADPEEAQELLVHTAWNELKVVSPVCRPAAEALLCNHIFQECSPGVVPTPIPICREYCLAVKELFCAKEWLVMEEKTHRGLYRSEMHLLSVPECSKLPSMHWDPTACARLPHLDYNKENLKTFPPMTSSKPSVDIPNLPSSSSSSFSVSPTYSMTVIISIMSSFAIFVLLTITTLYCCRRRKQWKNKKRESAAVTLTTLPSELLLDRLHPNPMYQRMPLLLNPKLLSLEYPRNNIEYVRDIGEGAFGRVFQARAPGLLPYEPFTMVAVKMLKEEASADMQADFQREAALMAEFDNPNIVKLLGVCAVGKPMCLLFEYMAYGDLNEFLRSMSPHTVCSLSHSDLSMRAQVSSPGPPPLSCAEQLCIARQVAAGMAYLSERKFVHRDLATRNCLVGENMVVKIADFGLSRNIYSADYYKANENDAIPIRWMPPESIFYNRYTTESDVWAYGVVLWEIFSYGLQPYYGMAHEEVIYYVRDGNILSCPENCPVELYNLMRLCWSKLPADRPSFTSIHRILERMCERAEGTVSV

[16] = molecular target: Mitogen-activated protein kinase 14 (Homo sapiens) (UniProt Q16539); experiment: Inhibition of wild-type human full length p38-alpha (M1 to S360 residues) expressed in bacterial expression system assessed as residual activity at 1 uM by Kinomescan method relative to control
[17] = molecular target: Serine/threonine-protein kinase D3 (Homo sapiens) (UniProt O94806); experiment: Inhibition of wild-type human partial length PRKD3 (S543 to E863 residues) expressed in bacterial expression system assessed as residual activity at 1 uM by Kinomescan method relative to control
[18] = molecular target: Protein kinase C theta type (Homo sapiens) (UniProt Q04759); experiment: Inhibition of PKCtheta (unknown origin) assessed as residual activity at 1 uM by Kinomescan method relative to control
[19] = molecular target: cGMP-dependent protein kinase 1 (Homo sapiens) (UniProt Q13976); experiment: Inhibition of PKG1a (unknown origin) assessed as residual activity at 1 uM by Kinomescan method relative to control
[20] = molecular target: Serine/threonine-protein kinase PLK1 (Homo sapiens) (UniProt P53350); experiment: Inhibition of wild-type human partial length PLK1 (A33 to F325 residues) expressed in mammalian expression system assessed as residual activity at 1 uM by Kinomescan method relative to control
[21] = molecular target: STE20/SPS1-related proline-alanine-rich protein kinase (Homo sapiens) (UniProt Q9UEW8); experiment: Inhibition of wild-type human partial length STK39 (P43 to I357 residues) expressed in mammalian expression system assessed as residual activity at 1 uM by Kinomescan method relative to control
[22] = molecular target: Serine/threonine-protein kinase TAO2 (Homo sapiens) (UniProt Q9UL54); experiment: Inhibition of wild-type human partial length TAOK2 (M1 to A320 residues) expressed in mammalian expression system assessed as residual activity at 1 uM by Kinomescan method relative to control
Chain of Serine/threonine-protein kinase TAO2 (Homo sapiens) (Q9UL54 whole entry, the tested form may be a part): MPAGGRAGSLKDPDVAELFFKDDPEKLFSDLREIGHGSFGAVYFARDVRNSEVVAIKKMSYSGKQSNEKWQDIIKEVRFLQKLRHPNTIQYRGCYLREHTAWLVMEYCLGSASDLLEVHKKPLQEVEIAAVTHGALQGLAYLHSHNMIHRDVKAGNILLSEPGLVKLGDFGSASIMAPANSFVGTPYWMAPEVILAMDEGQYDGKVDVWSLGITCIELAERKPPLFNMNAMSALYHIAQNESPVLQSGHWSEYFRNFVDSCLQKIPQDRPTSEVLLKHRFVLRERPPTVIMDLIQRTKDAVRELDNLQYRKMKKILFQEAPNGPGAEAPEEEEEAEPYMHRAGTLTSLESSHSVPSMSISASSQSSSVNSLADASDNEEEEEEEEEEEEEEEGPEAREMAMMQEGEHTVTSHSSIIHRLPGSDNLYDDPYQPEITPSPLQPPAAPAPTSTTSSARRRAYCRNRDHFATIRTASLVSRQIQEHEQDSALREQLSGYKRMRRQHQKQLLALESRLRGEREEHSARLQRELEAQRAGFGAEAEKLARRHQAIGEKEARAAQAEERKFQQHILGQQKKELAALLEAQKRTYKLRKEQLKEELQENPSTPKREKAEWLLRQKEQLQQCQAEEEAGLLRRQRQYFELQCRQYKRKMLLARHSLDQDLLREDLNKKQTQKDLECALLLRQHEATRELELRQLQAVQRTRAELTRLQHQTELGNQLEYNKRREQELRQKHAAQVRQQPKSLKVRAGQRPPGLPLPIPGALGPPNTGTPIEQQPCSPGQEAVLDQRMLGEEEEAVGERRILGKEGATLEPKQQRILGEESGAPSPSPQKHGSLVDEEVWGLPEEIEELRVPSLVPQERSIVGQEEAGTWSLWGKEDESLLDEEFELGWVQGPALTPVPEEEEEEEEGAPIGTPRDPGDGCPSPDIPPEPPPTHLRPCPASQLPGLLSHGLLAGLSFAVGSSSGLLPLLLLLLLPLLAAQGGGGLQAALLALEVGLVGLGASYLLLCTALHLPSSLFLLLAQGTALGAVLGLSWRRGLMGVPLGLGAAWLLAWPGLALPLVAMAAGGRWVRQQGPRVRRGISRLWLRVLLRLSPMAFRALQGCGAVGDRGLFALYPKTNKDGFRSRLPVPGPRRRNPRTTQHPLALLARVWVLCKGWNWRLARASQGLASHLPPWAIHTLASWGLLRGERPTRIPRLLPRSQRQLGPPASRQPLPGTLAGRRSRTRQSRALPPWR

[23] = molecular target: Serine/threonine-protein kinase VRK1 (Homo sapiens) (UniProt Q99986); experiment: Inhibition of VRK1 (unknown origin) assessed as residual activity at 1 uM by Kinomescan method relative to control
[24] = molecular target: Serine/threonine-protein kinase WNK3 (Homo sapiens) (UniProt Q9BYP7); experiment: Inhibition of wild-type human partial length WNK3 (M1 to D434 residues) expressed in mammalian expression system assessed as residual activity at 1 uM by Kinomescan method relative to control
[25] = molecular target: Mitogen-activated protein kinase kinase kinase 1 (Homo sapiens) (UniProt Q13233); experiment: Inhibition of MEKK1 (unknown origin) assessed as residual activity at 1 uM by Kinomescan method relative to control
[26] = molecular target: Testis-specific serine/threonine-protein kinase 6 (Homo sapiens) (UniProt Q9BXA6); experiment: Inhibition of SSTK (unknown origin) assessed as residual activity at 1 uM by Kinomescan method relative to control
Chain of Testis-specific serine/threonine-protein kinase 6 (Homo sapiens) (Q9BXA6 whole entry, the tested form may be a part): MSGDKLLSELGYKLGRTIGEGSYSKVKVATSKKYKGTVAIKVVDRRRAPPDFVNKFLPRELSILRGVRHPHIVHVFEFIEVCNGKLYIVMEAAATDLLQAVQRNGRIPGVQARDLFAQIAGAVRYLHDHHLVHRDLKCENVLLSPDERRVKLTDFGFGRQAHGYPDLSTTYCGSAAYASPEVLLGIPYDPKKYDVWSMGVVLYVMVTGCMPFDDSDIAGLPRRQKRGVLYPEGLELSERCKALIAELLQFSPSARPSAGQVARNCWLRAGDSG

[27] = molecular target: Testis-specific serine/threonine-protein kinase 3 (Homo sapiens) (UniProt Q96PN8); experiment: Inhibition of wild-type human full length TSSK3 (M1 to T268 residues) expressed in mammalian expression system assessed as residual activity at 1 uM by Kinomescan method relative to control
Chain of Testis-specific serine/threonine-protein kinase 3 (Homo sapiens) (Q96PN8 whole entry, the tested form may be a part): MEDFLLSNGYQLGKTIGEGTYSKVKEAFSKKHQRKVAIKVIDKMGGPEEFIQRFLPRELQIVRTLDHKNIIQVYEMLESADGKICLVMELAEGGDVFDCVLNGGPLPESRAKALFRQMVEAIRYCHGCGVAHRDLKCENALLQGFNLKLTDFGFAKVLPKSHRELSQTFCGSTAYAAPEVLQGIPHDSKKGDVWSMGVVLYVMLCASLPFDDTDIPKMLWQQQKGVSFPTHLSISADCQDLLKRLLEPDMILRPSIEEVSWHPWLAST

**Q.** For `CCOc1nc(Nc2ccc(C(=O)N3CCOCC3)cc2OC)nc2[nH]ccc12`, which AUCt/dose [1] is on record?
**A.** 1034 ng·h/g/mg/kg

**Q.** What about the pIC50 [2] of the same compound?
**A.** 7.50

**Q.** And the Activity [3]?
**A.** 89.4%

**Q.** What about the Activity [4] of the same compound?
**A.** 121%

**Q.** And the Activity [5]?
**A.** 96.5%

**Q.** And the Activity [6]?
**A.** 95%

**Q.** And the Activity [7]?
**A.** 95.6%

**Q.** And the Activity [8]?
**A.** 107%

**Q.** And the Activity [9]?
**A.** 103%

**Q.** And the Activity [10]?
**A.** 97.3%

**Q.** And the Activity [11]?
**A.** 96.3%

**Q.** And the Activity [12]?
**A.** 80.4%

**Q.** And the Activity [13]?
**A.** 92.7%

**Q.** And the Activity [14]?
**A.** 98%

**Q.** And the Activity [15]?
**A.** 72.9%

**Q.** What about the Activity [16] of the same compound?
**A.** 99.9%

**Q.** And the Activity [17]?
**A.** 63.7%

**Q.** What about the Activity [18] of the same compound?
**A.** 83.7%

**Q.** What about the Activity [19] of the same compound?
**A.** 92.5%

**Q.** And the Activity [20]?
**A.** 87.8%

**Q.** What about the Activity [21] of the same compound?
**A.** 97.5%

**Q.** And the Activity [22]?
**A.** 103%

**Q.** And the Activity [23]?
**A.** 86.7%

**Q.** What about the Activity [24] of the same compound?
**A.** 71.8%

**Q.** What about the Activity [25] of the same compound?
**A.** 99%

**Q.** And the Activity [26]?
**A.** 83.3%

**Q.** And the Activity [27]?
**A.** 116%
